The source of these data is patent US11337964B2, “Isoindoline derivative, pharmaceutical composition and use thereof” (Kangpu Biopharmaceuticals, Ltd., priority 2017, dated 2022).

The IC50 is the point on the concentration scale where inhibition reaches its midpoint. Low values mean higher potency, high ones lower potency.

Holding throughout (format): biochemical
Common to all, as to details: FAM-cAMP substrate, 30 minutes at room temperature

One test deals with T1, PDE4A1A (Homo sapiens, UniProt P27815).
T1 construct: purchased BPS 60040
As to the kind of experiment: PDE4 activity inhibition assay, PDE4A1A. The procedure:
(§1) The IC50 value of the inhibitory effect of the compound on PDE4A1A, PDE4B1 and PDE4D3 was tested.
(§2) Positive compound: Trequinsin (Sigma, Cat. No. T2057).
(§3) Equipment: Wallac Victor Multi-label counter (Perkin Elmer).
(§4) I. Preparing 1× reaction liquid and termination liquid;
(§5) II. PDE enzymatic reaction; • 1) The PDE was dissolved in 1× reaction solution to form 2× enzyme solution. • 2) FAM-cAMP was dissolved in 1× reaction solution to form 2× substrate solution. • 3) Echo 550 was used to transfer the corresponding volume of the compound in DMSO solution to the reaction plate. • 4) 2× enzyme solution was added into the corresponding well of the reaction plate and incubated with the compound solution at room temperature for 15 minutes. • 5) 2× substrate solution was added into the corresponding well of the reaction plate to initiate the reaction. • 6) Reaction plate was incubated at room temperature for 30 minutes and terminated by adding termination liquid, then incubated at room temperature for 60 minutes.
(§6) The inhibition rate was calculated by Excel; IC50 was calculated by GraphPad Prism.

The target in a further test is T2, PDE4B1 (Homo sapiens, UniProt Q07343).
T2 construct: purchased BPS 60041
As to the kind of experiment: PDE4 activity inhibition assay, PDE4B1. The procedure: as §1, §2, §3, §4, §5, §6

A further test addresses T3, PDE4D3 (Homo sapiens, UniProt Q08499).
T3 construct: purchased BPS 60046
As to the kind of experiment: PDE4 activity inhibition assay, PDE4D3. How it is done: as §1, §2, §3, §4, §5, §6

T3 sequence (Q08499 1-673 isoform Q08499-2): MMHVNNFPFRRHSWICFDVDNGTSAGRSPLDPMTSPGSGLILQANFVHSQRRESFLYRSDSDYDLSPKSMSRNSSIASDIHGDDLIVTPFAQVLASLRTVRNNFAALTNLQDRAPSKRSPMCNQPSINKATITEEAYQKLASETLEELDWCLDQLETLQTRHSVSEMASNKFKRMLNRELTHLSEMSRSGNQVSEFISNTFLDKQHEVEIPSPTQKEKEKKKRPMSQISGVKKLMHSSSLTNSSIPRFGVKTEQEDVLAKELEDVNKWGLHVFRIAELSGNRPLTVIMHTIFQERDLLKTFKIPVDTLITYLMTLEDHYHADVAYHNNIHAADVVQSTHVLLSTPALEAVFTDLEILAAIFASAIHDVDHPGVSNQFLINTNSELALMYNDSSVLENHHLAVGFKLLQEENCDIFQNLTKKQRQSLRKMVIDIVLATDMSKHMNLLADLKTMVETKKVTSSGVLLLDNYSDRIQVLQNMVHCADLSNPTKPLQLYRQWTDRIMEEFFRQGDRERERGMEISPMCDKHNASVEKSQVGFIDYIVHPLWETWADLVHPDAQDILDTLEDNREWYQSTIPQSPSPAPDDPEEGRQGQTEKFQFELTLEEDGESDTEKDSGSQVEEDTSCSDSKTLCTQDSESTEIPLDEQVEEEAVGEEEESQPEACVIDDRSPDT
T2 sequence (Q07343 whole entry): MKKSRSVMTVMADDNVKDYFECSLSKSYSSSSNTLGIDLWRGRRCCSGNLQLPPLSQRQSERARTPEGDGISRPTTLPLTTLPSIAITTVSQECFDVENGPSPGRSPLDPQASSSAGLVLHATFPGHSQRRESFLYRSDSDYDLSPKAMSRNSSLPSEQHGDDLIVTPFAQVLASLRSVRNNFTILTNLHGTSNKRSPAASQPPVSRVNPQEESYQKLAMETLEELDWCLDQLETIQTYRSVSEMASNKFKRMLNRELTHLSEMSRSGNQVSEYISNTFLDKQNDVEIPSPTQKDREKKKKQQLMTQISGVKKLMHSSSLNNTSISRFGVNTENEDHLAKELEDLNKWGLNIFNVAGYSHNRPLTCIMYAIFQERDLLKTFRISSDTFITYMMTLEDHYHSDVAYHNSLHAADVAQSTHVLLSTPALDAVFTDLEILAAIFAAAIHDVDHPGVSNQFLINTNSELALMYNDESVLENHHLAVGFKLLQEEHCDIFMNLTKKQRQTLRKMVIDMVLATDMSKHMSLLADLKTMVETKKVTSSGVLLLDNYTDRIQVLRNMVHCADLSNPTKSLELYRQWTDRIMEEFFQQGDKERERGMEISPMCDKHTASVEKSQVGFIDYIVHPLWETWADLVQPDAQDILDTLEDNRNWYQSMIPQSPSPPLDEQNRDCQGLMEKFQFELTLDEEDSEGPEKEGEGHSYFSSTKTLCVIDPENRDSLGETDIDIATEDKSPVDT
T1 sequence (P27815 1-647 isoform P27815-4): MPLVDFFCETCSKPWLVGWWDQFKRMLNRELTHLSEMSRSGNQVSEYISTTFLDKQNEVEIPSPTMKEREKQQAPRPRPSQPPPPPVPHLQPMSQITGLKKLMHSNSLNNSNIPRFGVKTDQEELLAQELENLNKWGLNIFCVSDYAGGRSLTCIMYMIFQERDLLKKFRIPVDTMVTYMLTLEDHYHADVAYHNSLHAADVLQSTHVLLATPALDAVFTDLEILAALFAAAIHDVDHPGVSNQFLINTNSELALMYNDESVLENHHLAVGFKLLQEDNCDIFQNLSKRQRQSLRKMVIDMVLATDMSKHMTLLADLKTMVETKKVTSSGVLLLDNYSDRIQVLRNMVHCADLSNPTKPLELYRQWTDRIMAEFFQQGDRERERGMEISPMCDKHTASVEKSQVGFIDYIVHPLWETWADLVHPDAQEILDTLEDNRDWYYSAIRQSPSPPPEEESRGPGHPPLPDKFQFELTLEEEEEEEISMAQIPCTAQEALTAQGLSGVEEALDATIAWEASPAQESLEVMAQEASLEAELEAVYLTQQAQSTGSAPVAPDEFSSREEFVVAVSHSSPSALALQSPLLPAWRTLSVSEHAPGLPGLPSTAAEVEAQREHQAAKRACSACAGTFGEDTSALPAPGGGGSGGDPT

As to `CCOc1nc([C@@H](CS(C)(=O)=O)N2C(=O)c3c(F)ccc(NC(=O)C4CC4)c3C2=O)ccc1OC` [Compound 764, (S)—N-(2-(1-(6-ethoxy-5-methoxypyridin-2-yl)-2-(methylsulfonyl)ethyl)-7-fluoro-1,3-dioxoisoindolin-4-yl)cyclopropanecarboxamide], the IC50 worked out at 1.6 nM at PDE4A1A, 1.9 nM at PDE4B1 and 1 nM at PDE4D3.
`[2H]C([2H])([2H])Oc1ccc([C@@H](CS(C)(=O)=O)N2C(=O)c3c(Cl)ccc(NC(C)=O)c3C2=O)cc1OCC` [Compound 113, (S)—N-(7-chloro-2-(1-(3-ethoxy-4-d3-methoxyphenyl)-2-(methylsulfonyl)ethyl)-1,3-dioxoisoindolin-4-yl)acetamide]: the IC50 amounted to 2.1 nM on PDE4A1A, 5.1 nM on PDE4B1 and 1.3 nM at PDE4D3.
The corresponding values for `CCOc1nc(C(CS(C)(=O)=O)N2C(=O)c3cccc(NC(=O)COCc4ccccc4)c3C2=O)ccc1OC` (stereo not drawn) [Compound 742, 2-(benzyloxy)-N-(2-(1-(6-ethoxy-5-methoxypyridin-2-yl)-2-(methylsulfonyl)ethyl)-1,3-dioxoisoindolin-4-yl)acetamide] are 2.4 nM, 6.2 nM and 2.6 nM.
In the same order, the values of `CCOc1nc(C(CS(C)(=O)=O)N2C(=O)c3cccc(NC(=O)COC)c3C2=O)ccc1OC` (stereo not drawn) [Compound 748, N-(2-(1-(6-ethoxy-5-methoxypyridin-2-yl)-2-(methylsulfonyl)ethyl)-1,3-dioxoisoindolin-4-yl)-2-methoxyacetamide] are 2.8 nM, 7.9 nM and 3.3 nM.
In the same order, the values of `[2H]C([2H])([2H])Oc1ccc([C@@H](CS(C)(=O)=O)N2C(=O)c3c(F)ccc(NC(C)=O)c3C2=O)nc1OCC` [Compound 718, (S)—N-(2-(1-(6-ethoxy-5-d3-methoxypyridin-2-yl)-2-(methylsulfonyl)ethyl)-7-fluoro-1,3-dioxoisoindolin-4-yl)acetamide] are 0.9 nM, 3 nM and 0.7 nM.
`[2H]C([2H])([2H])Oc1ccc([C@@H](CS(C)(=O)=O)N2C(=O)c3cccc(NC(=O)C4CC4)c3C2=O)nc1OCC` [Compound 773, (S)—N-(2-(1-(6-ethoxy-5-d3-methoxypyridin-2-yl)-2-(methylsulfonyl)ethyl)-1,3-dioxoisoindolin-4-yl)cyclopropanecarboxamide]: the IC50 against PDE4A1A was 1.7 nM; at PDE4B1, 1.7 nM; on PDE4D3, 1.2 nM.
As for `CCOc1nc([C@H](CS(C)(=O)=O)N2C(=O)c3c(F)ccc(NC(C)=O)c3C2=O)ccc1OC` [Compound 706, (R)—N-(2-(1-(6-ethoxy-5-methoxypyridin-2-yl)-2-(methylsulfonyl)ethyl)-7-fluoro-1,3-dioxoisoindolin-4-yl)acetamide], the IC50 at PDE4A1A was found to be 6.5 nM; on PDE4B1 it was 18 nM; against PDE4D3 it was 4 nM.
The corresponding values for `[2H]C([2H])([2H])Oc1ccc([C@@H](CS(C)(=O)=O)N2C(=O)c3cccc(NC(C)=O)c3C2=O)nc1OCC` [Compound 711, (S)—N-(2-(1-(6-ethoxy-5-d3-methoxypyridin-2-yl)-2-(methylsulfonyl)ethyl)-1,3-dioxoisoindolin-4-yl)acetamide] are 1.1 nM, 5.1 nM and 2 nM.
Turning to `[2H]C([2H])([2H])Oc1ccc([C@H](CS(C)(=O)=O)N2C(=O)c3c(F)ccc(NC(C)=O)c3C2=O)cc1OC([2H])([2H])[2H]` [Compound 106, (R)—N-(2-(1-(3,4-d6-dimethoxyphenyl)-2-(methylsulfonyl)ethyl)-7-fluoro-1,3-dioxoisoindolin-4-yl)acetamide], the half-maximal inhibitory concentration (IC50) against PDE4A1A came out at 340 nM; against PDE4B1, 493 nM; at PDE4D3 it was 300 nM.
In the same order, the values of `[2H]C([2H])([2H])Oc1ccc([C@@H](CS(C)(=O)=O)N2C(=O)c3cc(F)cc(NC(C)=O)c3C2=O)cc1OC([2H])([2H])[2H]` [Compound 205, (S)—N-(2-(1-(3,4-d6-dimethoxyphenyl)-2-(methylsulfonyl)ethyl)-6-fluoro-1,3-dioxoisoindolin-4-yl)acetamide] are 123 nM, 165 nM and 79 nM.
The corresponding values for `CCOc1cc(C(CS(C)(=O)=O)N2C(=O)c3c(F)ccc(NC(C)=O)c3C2=O)ccc1OC(F)F` (stereo not drawn) [Compound 121, N-(2-(1-(4-(difluoromethoxy)-3-ethoxyphenyl)-2-(methylsulfonyl)ethyl)-7-fluoro-1,3-dioxoisoindolin-4-yl)acetamide] are 3.4 nM, 7 nM and 0.9 nM.
Take `CCOc1cc([C@@H](CS(C)(=O)=O)N2C(=O)c3c(F)ccc(NC(C)=O)c3C2=O)ccc1OC` [Compound 102, (S)—N-(2-(1-(3-ethoxy-4-methoxyphenyl)-2-(methylsulfonyl)ethyl)-7-fluoro-1,3-dioxoisoindolin-4-yl)acetamide]: the IC50 at PDE4A1A amounted to 11 nM; on PDE4B1, 14 nM; at PDE4D3 it was 7.4 nM.
Consider `CCOc1nc(C(CS(C)(=O)=O)N2C(=O)c3cccc(NC(C)=O)c3C2=O)ccc1OC` (stereo not drawn) [Compound 701, N-(2-(1-(6-ethoxy-5-methoxypyridin-2-yl)-2-(methylsulfonyl)ethyl)-1,3-dioxoisoindolin-4-yl)acetamide], for which the half-inhibitory concentration (IC50) against PDE4A1A was 2.5 nM; on PDE4B1 it was 3.5 nM; against PDE4D3, 2.1 nM.
The corresponding values for `CCOc1nc([C@H](CS(C)(=O)=O)N2C(=O)c3cccc(NC(C)=O)c3C2=O)ccc1OC` [Compound 703, (R)—N-(2-(1-(6-ethoxy-5-methoxypyridin-2-yl)-2-(methylsulfonyl)ethyl)-1,3-dioxoisoindolin-4-yl)acetamide] are 30 nM, 55 nM and 20 nM.
As for `[2H]C([2H])([2H])Oc1ccc([C@@H](CS(C)(=O)=O)N2C(=O)c3c(F)ccc(NC(=O)C4CC4)c3C2=O)cc1OCC` [Compound 118, (S)—N-(2-(1-(3-ethoxy-4-d3-methoxyphenyl)-2-(methylsulfonyl)ethyl)-7-fluoro-1,3-dioxoisoindolin-4-yl)cyclopropanecarboxamide], the IC50 at PDE4A1A was 5.1 nM; at PDE4B1, 8.7 nM; against PDE4D3, 2.5 nM.
The corresponding values for `CCOc1nc(C(CS(C)(=O)=O)N2C(=O)c3c(Cl)ccc(NC(C)=O)c3C2=O)ccc1OC` (stereo not drawn) [Compound 728, N-(7-chloro-2-(1-(6-ethoxy-5-methoxypyridin-2-yl)-2-(methylsulfonyl)ethyl)-1,3-dioxoisoindolin-4-yl)acetamide] are 0.6 nM, 1.6 nM and 0.4 nM.
In the same order, the values of `CCOc1nc(C(CS(C)(=O)=O)N2C(=O)c3cccc(NC(=O)CO)c3C2=O)ccc1OC` (stereo not drawn) [Compound 739, N-(2-(1-(6-ethoxy-5-methoxypyridin-2-yl)-2-(methylsulfonyl)ethyl)-1,3-dioxoisoindolin-4-yl)-2-hydroxyacetamide] are 14.5 nM, 36.3 nM and 10.9 nM.
The corresponding values for `CCOc1cc([C@@H](CS(C)(=O)=O)N2C(=O)c3cncc(NC(C)=O)c3C2=O)ccc1OC` [Compound 502, (S)—N-(2-(1-(3-ethoxy-4-methoxyphenyl)-2-(methylsulfonyl)ethyl)-1,3-dioxo-2,3-dihydro-1H-pyrrolo[3,4-c]pyridin-7-yl)acetamide] are 206 nM, 513 nM and 107 nM.
As for `[2H]C([2H])([2H])Oc1ccc([C@@H](CS(C)(=O)=O)N2C(=O)c3cc(F)cc(NC(C)=O)c3C2=O)cc1OC([2H])([2H])C([2H])([2H])[2H]` [Compound 207, (S)—N-(2-(1-(3-d5-ethoxy-4-d3-methoxyphenyl)-2-(methylsulfonyl)ethyl)-6-fluoro-1,3-dioxoisoindolin-4-yl)acetamide], the IC50 at PDE4A1A was determined as 20 nM; against PDE4B1, 20 nM; at PDE4D3, 12 nM.
With `CCOc1cc(C(CS(C)(=O)=O)N2C(=O)c3nccc(NC(C)=O)c3C2=O)ccc1OC` (stereo not drawn) [Compound 601, N-(6-(1-(3-ethoxy-4-methoxyphenyl)-2-(methylsulfonyl)ethyl)-5,7-dioxo-6,7-dihydro-5H-pyrrolo[3,4-b]pyridin-4-yl)acetamide], the half-maximal inhibitory concentration (IC50) came to 273 nM at PDE4A1A, 390 nM against PDE4B1 and 201 nM against PDE4D3.
The corresponding values for `CCOc1cc([C@@H](CS(C)(=O)=O)N2C(=O)c3c(C#N)ccc(NC(C)=O)c3C2=O)ccc1OC` [Compound 115, (S)—N-(7-cyano-2-(l 1-(3-ethoxy-4-methoxyphenyl)-2-(methylsulfonyl)ethyl)-1,3-dioxoisoindolin-4-yl)acetamide] are 6 nM, 17.3 nM and 5.7 nM.
In the case of `[2H]C([2H])([2H])Oc1ccc([C@@H](CS(C)(=O)=O)N2C(=O)c3c(F)ccc(NC(=O)C4CC4)c3C2=O)nc1OCC` [Compound 767, (S)—N-(2-(1-(6-ethoxy-5-d3-methoxypyridin-2-yl)-2-(methylsulfonyl)ethyl)-7-fluoro-1,3-dioxoisoindolin-4-yl)cyclopropanecarboxamide], the IC50 was 1.3 nM against PDE4A1A, 2.2 nM on PDE4B1 and 1 nM against PDE4D3.
